# Reference: patent US20250145585A1, “HETEROCYCLIC INHIBITORS OF IGF-1R FOR TREATMENT OF DISEASE” (HORIZON THERAPEUTICS IRELAND DAC, priority 2023, published 2025)
# Biological target: T1, IGF-1R (Homo sapiens, UniProt P08069)
# T1 construct: expressed in transfected cells
# Assay: Example B-2: IGF-1R Assay (PathHunter cell lines, EC80 agonist challenge, chemiluminescent detection)
# Assay type: cell-based
# Settings: PathHunter cells, compound 60 minutes at 37° C., EC80 agonist 3 hours; read-out: IC50, Biological Activity against IGF-1R (Table B2)
# In short: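 PathHunter cells were pre-incubated with compound for 60 min at 37° C (1% vehicle), then challenged with EC80 agonist for 3 h at room temperature. Chemiluminescent detection after 1 h gave % inhibition relative to EC80 and vehicle controls, from which IC50 was derived.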
# T1 sequence (P08069 31-1367): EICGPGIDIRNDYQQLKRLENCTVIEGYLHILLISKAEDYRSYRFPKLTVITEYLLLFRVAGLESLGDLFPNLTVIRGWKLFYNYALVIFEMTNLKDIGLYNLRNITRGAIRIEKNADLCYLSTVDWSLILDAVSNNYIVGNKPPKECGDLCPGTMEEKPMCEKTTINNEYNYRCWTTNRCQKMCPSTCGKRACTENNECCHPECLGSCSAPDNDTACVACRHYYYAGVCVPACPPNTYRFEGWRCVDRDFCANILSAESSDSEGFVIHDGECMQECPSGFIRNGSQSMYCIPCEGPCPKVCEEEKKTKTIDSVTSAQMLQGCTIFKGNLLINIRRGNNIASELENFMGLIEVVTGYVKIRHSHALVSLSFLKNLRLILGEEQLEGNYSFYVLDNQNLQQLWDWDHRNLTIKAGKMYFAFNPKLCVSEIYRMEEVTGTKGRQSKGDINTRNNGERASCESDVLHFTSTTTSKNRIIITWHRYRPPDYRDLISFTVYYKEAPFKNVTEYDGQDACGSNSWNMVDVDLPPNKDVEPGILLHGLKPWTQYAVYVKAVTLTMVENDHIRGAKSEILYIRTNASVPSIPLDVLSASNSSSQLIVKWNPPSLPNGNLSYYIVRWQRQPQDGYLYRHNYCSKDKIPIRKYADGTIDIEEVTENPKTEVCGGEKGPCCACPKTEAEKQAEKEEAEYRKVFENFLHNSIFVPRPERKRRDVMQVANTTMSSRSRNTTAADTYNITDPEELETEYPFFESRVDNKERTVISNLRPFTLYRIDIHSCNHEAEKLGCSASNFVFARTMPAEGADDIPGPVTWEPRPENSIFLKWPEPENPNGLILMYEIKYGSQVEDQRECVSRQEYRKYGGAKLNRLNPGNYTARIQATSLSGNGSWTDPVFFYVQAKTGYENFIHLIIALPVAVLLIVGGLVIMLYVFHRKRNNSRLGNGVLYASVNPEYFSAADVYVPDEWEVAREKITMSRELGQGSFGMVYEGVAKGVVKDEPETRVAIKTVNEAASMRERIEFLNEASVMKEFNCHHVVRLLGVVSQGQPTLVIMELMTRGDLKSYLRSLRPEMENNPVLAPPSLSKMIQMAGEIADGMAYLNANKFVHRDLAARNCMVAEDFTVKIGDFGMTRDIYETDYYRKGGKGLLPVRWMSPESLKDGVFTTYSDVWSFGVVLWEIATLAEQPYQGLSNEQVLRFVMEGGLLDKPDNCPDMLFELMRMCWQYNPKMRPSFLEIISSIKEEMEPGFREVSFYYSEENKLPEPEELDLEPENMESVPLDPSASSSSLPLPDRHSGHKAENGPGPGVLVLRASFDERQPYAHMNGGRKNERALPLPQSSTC
row,IC50 [nM],SMILES
1,≤ 500,"COC[C@@H](C)Nc1cc(CN2C(=O)N(c3cc(C(C)(C)C)nn3C)C(=O)C2(C)C)ccn1 [Compound 259, (R)-3-(3-(tert-butyl)-1-methyl-1H-pyrazol-5-yl)-1-((2-((1-methoxypropan-2-yl)amino)pyridin-4-yl)methyl)-5,5-dimethylimidazolidine-2,4-dione]"
2,2000 to 10000,"Cn1nc(C(C)(C)C)cc1N1C(=O)N(Cc2ccnc(NC3CCOCC3)c2)C(C)(C)C1=O [Compound 260, 3-(3-(tert-butyl)-1-methyl-1H-pyrazol-5-yl)-5,5-dimethyl-1-((2-((tetrahydro-2H-pyran-4-yl)amino)pyridin-4-yl)methyl)imidazolidine-2,4-dione]"
3,> 10000,"Cn1nc(C(C)(C)C)cc1N1C(=O)N(Cc2ccnc(N[C@H]3CCOC3)c2)C(C)(C)C1=O [Compound 261, (S)-3-(3-(tert-butyl)-1-methyl-1H-pyrazol-5-yl)-5,5-dimethyl-1-((2-((tetrahydrofuran-3-yl)amino)pyridin-4-yl)methyl)imidazolidine-2,4-dione]"
4,> 10000,"C[C@@H](CC#N)Nc1cc(CN2C(=O)N(c3cc(C(C)(C)C)nn3C)C(=O)C2(C)C)ccn1 [Compound 262, (S)-3-((4-((3-(3-(tert-butyl)-1-methyl-1H-pyrazol-5-yl)-5,5-dimethyl-2,4-dioxoimidazolidin-1-yl)methyl)pyridin-2-yl)amino)butanenitrile]"
5,≤ 500,"CC(C)c1ccc(N2C(=O)N(Cc3ccnc(N[C@H]4[C@@H]5COC[C@@H]54)c3)C(C)(C)C2=O)cc1C#N [Compound 279, 5-(3-((2-(((1R,5S,6r)-3-oxabicyclo[3.1.0]hexan-6-yl)amino)pyridin-4-yl)methyl)-4,4-dimethyl-2,5-dioxoimidazolidin-1-yl)-2-isopropylbenzonitrile]"
6,≤ 500,"CC(C)c1ccc(N2C(=O)N(Cc3ccnc(N[C@H]4[C@@H]5COC[C@@H]54)c3)C(C)(C)C2=O)cc1OCCN(C)C [Compound 280, 1-((2-(((1R,5S,6r)-3-oxabicyclo[3.1,0]hexan-6-yl)amino)pyridin-4-yl)methyl)-3-(3-(2-(dimethylamino)ethoxy)-4-isopropylphenyl)-5,5-dimethylimidazolidine-2,4-dione]"
7,500 to 2000,"C[C@@H](CC#N)Nc1cc(CN2C(=O)N(c3ccc(S(=O)(=O)C(F)(F)F)cc3)C(=O)C2(C)C)ccn1 [Compound 321, (S)-3-((4-((5,5-dimethyl-2,4-dioxo-3-(4-((trifluoromethyl)sulfonyl)phenyl)imidazolidin-1-yl)methyl)pyridin-2-yl)amino)butanenitrile]"
8,2000 to 10000,"CN1C[C@@H](Nc2cc(CN3C(=O)N(c4ccc(S(=O)(=O)C(F)(F)F)cc4)C(=O)C3(C)C)ccn2)CC1=O [Compound 323, (S)-5,5-dimethyl-1-((2-((1-methyl-5-oxopyrrolidin-3-yl)amino)pyridin-4-yl)methyl)-3-(4-((trifluoromethyl)sulfonyl)phenyl) imidazolidine-2,4-dione]"
9,500 to 2000,"CN1C[C@H](Nc2cc(CN3C(=O)N(c4ccc(S(=O)(=O)C(F)(F)F)cc4)C(=O)C3(C)C)ccn2)CC1=O [Compound 324, (R)-5,5-dimethyl-1-((2-((1-methyl-5-oxopyrrolidin-3-yl)amino)pyridin-4-yl)methyl)-3-(4-((trifluoromethyl)sulfonyl)phenyl) imidazolidine-2,4-dione]"
10,500 to 2000,"CN1CC(Nc2cc(CN3C(=O)N(c4ccc(S(=O)(=O)C(F)(F)F)cc4)C(=O)C3(C)C)ccn2)CCC1=O (centres unmarked) [Compound 330, 5,5-dimethyl-1-((2-((1-methyl-6-oxopiperidin-3-yl)amino)pyridin-4-yl)methyl)-3-(4-((trifluoromethyl)sulfonyl)phenyl) imidazolidine-2,4-dione]"

# Second part, the compound before the results:
row,SMILES,IC50 [nM]
1,"CC1(C)CN(C(N)=O)c2cc(N3C(=O)N(Cc4ccnc(N[C@H]5[C@@H]6COC[C@@H]65)c4)C(C)(C)C3=O)ccc21 [Compound 253, 6-(3-((2-(((1R,5S,6r)-3-oxabicyclo[3.1.0]hexan-6-yl)amino)pyridin-4-yl)methyl)-4,4-dimethyl-2,5-dioxoimidazolidin-1-yl)-3,3-dimethylindoline-1-carboxamide]",≤ 500
2,"CN(C)CC(=O)Nc1cc(N2C(=O)N(Cc3ccnc(N[C@H]4[C@@H]5COC[C@@H]54)c3)C(C)(C)C2=O)ccc1OC(F)(F)F [Compound 281, N-(5-(3-((2-(((1R,5S,6r)-3-oxabicyclo[3.1.0]hexan-6-yl)amino)pyridin-4-yl)methyl)-4,4-dimethyl-2,5-dioxoimidazolidin-1-yl)-2-(trifluoromethoxy)phenyl)-2-(dimethylamino)acetamide]",≤ 500
3,"CN(C)CCOc1cc(N2C(=O)N(Cc3ccnc(N[C@H]4[C@@H]5COC[C@@H]54)c3)C(C)(C)C2=O)ccc1OC(F)(F)F [Compound 282, 1-((2-(((1R,5S,6r)-3-oxabicyclo[3.1.0]hexan-6-yl)amino)pyridin-4-yl)methyl)-3-(3-(2-(dimethylamino)ethoxy)-4-(trifluoromethoxy)phenyl)-5,5-dimethylimidazolidine-2,4-dione]",≤ 500
4,"CC1(C)C(=O)N(c2ccc(OC(F)(F)F)c(NS(C)(=O)=O)c2)C(=O)N1Cc1ccnc2c1CC(=O)N2 [Compound 283, N-(5-(4,4-dimethyl-2,5-dioxo-3-((2-oxo-2,3-dihydro-1H-pyrrolo[2,3-b]pyridin-4-yl)methyl)imidazolidin-1-yl)-2-(trifluoromethoxy)phenyl) methanesulfonamide]",> 10000
5,"CN(C)CCOc1cc(N2C(=O)N(Cc3ccnc4c3CC(=O)N4)C(C)(C)C2=O)ccc1OC(F)(F)F [Compound 284, 3-(3-(2-(dimethylamino)ethoxy)-4-(trifluoromethoxy)phenyl)-5,5-dimethyl-1-((2-oxo-2,3-dihydro-1H-pyrrolo[2,3-b]pyridin-4-yl)methyl)imidazolidine-2,4-dione]",500 to 2000
6,"CC1(C)C(=O)N(c2ccc(OC(F)(F)F)cc2)C(=O)N1Cc1ccnc2c1CC(=O)N2 [Compound 285, 5,5-dimethyl-1-((2-oxo-2,3-dihydro-1H-pyrrolo[2,3-b]pyridin-4-yl)methyl)-3-(4-(trifluoromethoxy)phenyl) imidazolidine-2,4-dione]",500 to 2000
7,"CC1(C)C(=O)N(c2ccc(OC(F)(F)F)c(F)c2)C(=O)N1Cc1ccnc2c1CC(=O)N2 [Compound 286, 3-(3-fluoro-4-(trifluoromethoxy)phenyl)-5,5-dimethyl-1-((2-oxo-2,3-dihydro-1H-pyrrolo[2,3-b]pyridin-4-yl)methyl)imidazolidine-2,4-dione]",2000 to 10000
8,"CC1(C)C(=O)N(c2ccc(OC(F)(F)F)c(Cl)c2)C(=O)N1Cc1ccnc2c1CC(=O)N2 [Compound 287, 3-(3-chloro-4-(trifluoromethoxy)phenyl)-5,5-dimethyl-1-((2-oxo-2,3-dihydro-1H-pyrrolo[2,3-b]pyridin-4-yl)methyl)imidazolidine-2,4-dione]",2000 to 10000
9,"CC1(C)C(=O)N(c2ccc(OC(F)(F)F)c(C#N)c2)C(=O)N1Cc1ccnc2c1CC(=O)N2 [Compound 288, 5-(4,4-dimethyl-2,5-dioxo-3-((2-oxo-2,3-dihydro-1H-pyrrolo[2,3-b]pyridin-4-yl)methyl)imidazolidin-1-yl)-2-(trifluoromethoxy)benzonitrile]",> 10000
10,"CC1(C)C(=O)N(c2ccc(S(=O)(=O)C(F)(F)F)cc2)C(=O)N1Cc1ccnc(N[C@H]2CCOC2)c1 [Compound 320, (S)-5,5-dimethyl-1-((2-((tetrahydrofuran-3-yl)amino)pyridin-4-yl)methyl)-3-(4-((trifluoromethyl)sulfonyl)phenyl) imidazolidine-2,4-dione]",≤ 500
11,"CC1(C)C(=O)N(c2ccc(S(=O)(=O)C(F)(F)F)cc2)C(=O)N1Cc1ccnc(NC2CCN(S(C)(=O)=O)CC2)c1 [Compound 322, 5,5-dimethyl-1-((2-((1-(methylsulfonyl)piperidin-4-yl)amino)pyridin-4-yl)methyl)-3-(4-((trifluoromethyl)sulfonyl)phenyl) imidazolidine-2,4-dione]",500 to 2000
12,"CC1(C)C(=O)N(c2ccc(S(=O)(=O)C(F)(F)F)cc2)C(=O)N1Cc1ccnc(NC2CCc3cn[nH]c3C2)c1 (centres unmarked) [Compound 325, 5,5-dimethyl-1-((2-((4,5,6,7-tetrahydro-1H-indazol-6-yl)amino)pyridin-4-yl)methyl)-3-(4-((trifluoromethyl)sulfonyl)phenyl) imidazolidine-2,4-dione]",≤ 500
13,"CN1CCC(Nc2cc(CN3C(=O)N(c4ccc(S(=O)(=O)C(F)(F)F)cc4)C(=O)C3(C)C)ccn2)CC1=O (centres unmarked) [Compound 326, 5,5-dimethyl-1-((2-((1-methyl-2-oxopiperidin-4-yl)amino)pyridin-4-yl)methyl)-3-(4-((trifluoromethyl)sulfonyl)phenyl) imidazolidine-2,4-dione]",2000 to 10000
14,"CC1(C)C(=O)N(c2ccc(S(=O)(=O)C(F)(F)F)cc2)C(=O)N1Cc1ccnc(NC2CS(=O)(=O)C2)c1 [Compound 327, 1-((2-((1,1-dioxidothietan-3-yl)amino)pyridin-4-yl)methyl)-5,5-dimethyl-3-(4-((trifluoromethyl)sulfonyl)phenyl) imidazolidine-2,4-dione]",2000 to 10000
15,"CN1CCCC(Nc2cc(CN3C(=O)N(c4ccc(S(=O)(=O)C(F)(F)F)cc4)C(=O)C3(C)C)ccn2)C1=O (centres unmarked) [Compound 328, 5,5-dimethyl-1-((2-((1-methyl-2-oxopiperidin-3-yl)amino)pyridin-4-yl)methyl)-3-(4-((trifluoromethyl)sulfonyl)phenyl) imidazolidine-2,4-dione]",> 10000
16,"CC1(C)C(=O)N(c2ccc(S(=O)(=O)C(F)(F)F)cc2)C(=O)N1Cc1ccnc(NC2CCN(S(C)(=O)=O)C2)c1 (centres unmarked) [Compound 329, 5,5-dimethyl-1-((2-((1-(methylsulfonyl)pyrrolidin-3-yl)amino)pyridin-4-yl)methyl)-3-(4-((trifluoromethyl)sulfonyl)phenyl) imidazolidine-2,4-dione]",500 to 2000
